Laboratory results reported in PMC4182091, “A Common Minimal Motif for the Ligands of HLA-B*27 Class I Molecules” (PLoS ONE, 2014).
Read-outs that look alike come from different tables or passages of the source. Ends that are not written are not given here.

Columns and labels:
Type in all cases: cell-based
HLA-B*2706 = target: T1, HLA-B*2706 (Homo sapiens, UniProt P01889, A235G/D201E/E204Q/G107R/H137Y/K202T/N104T/N87E/Q56L/Q94K/R106L/R155S/R180L/S121N/S48T/Y33H/Y91C); assay: HLA/peptide complex stability assay, RMA-S cells transfected with HLA-B*2706; conditions: for fluorescence index, B*2706: peptide 200 µM
T1 construct: expressed in transfected cells; host or cells: RMA-S (TAP-deficient murine cell line)

HLA-B*2702 = HLA-B*2702 (Homo sapiens, UniProt P01889, D138H/D201E/E176V/E204Q/G107R/H137Y/K202T/L105A/N104I/N87E/Q56L/Q94K/R106L/R155S/R180L/S101N/S121N/S48T/Y140D/Y33H/Y91C); assay: HLA/peptide complex stability assay, RMA-S cells transfected with HLA-B*2702; conditions: for fluorescence index, B*2702: peptide 200 µM
HLA-B*2704 = HLA-B*2704 (Homo sapiens, UniProt P01889, A235G/D138H/D201E/E204Q/G107R/H137Y/K202T/N104T/N87E/Q56L/Q94K/R106L/R155S/R180L/S121N/S48T/Y140D/Y33H/Y91C); assay: HLA/peptide complex stability assay, RMA-S cells transfected with HLA-B*2704; conditions: for fluorescence index, B*2704: peptide 200 µM
HLA-B*2705 = target: T2, HLA-B*2705 (Homo sapiens, UniProt P01889, D138H/D201E/E176V/E204Q/G107R/H137Y/K202T/N104T/N87E/Q56L/Q94K/R106L/R155S/R180L/S101D/S121N/S48T/Y140D/Y33H/Y91C); assay: HLA/peptide complex stability assay, RMA-S cells transfected with HLA-B*2705; conditions: for fluorescence index, B*2705: peptide 200 µM
T2 construct: expressed in transfected cells; host or cells: RMA-S (TAP-deficient murine cell line)

HLA-B*2701 = target: T3, HLA-B*2701 (Homo sapiens, UniProt P01889, D138H/D201E/D98Y/E176V/E204Q/G107R/H137Y/K202T/L105A/N104T/N87E/Q56L/Q94K/R106L/R155S/R180L/S101N/S121N/S48T/Y140D/Y33H/Y91C); assay: HLA/peptide complex stability assay, RMA-S cells transfected with HLA-B*2701; conditions: for fluorescence index, B*2701: peptide 200 µM
T3 construct: expressed in transfected cells; host or cells: RMA-S (TAP-deficient murine cell line)

HLA-B*2703 = target: T4, HLA-B*2703 (Homo sapiens, UniProt P01889, D138H/D201E/E176V/E204Q/G107R/H137Y/K202T/N104T/N87E/Q56L/Q94K/R106L/R155S/R180L/S101D/S121N/S48T/Y140D/Y33H/Y83H/Y91C); assay: HLA/peptide complex stability assay, RMA-S cells transfected with HLA-B*2703; conditions: for fluorescence index, B*2703: peptide 200 µM
T4 construct: expressed in transfected cells; host or cells: RMA-S (TAP-deficient murine cell line)

HLA-B*2709 = target: T5, HLA-B*2709 (Homo sapiens, UniProt P01889, D138H/D201E/E176V/E204Q/G107R/H137Y/K202T/N104T/N87E/Q56L/Q94K/R106L/R155S/R180L/S101D/S121N/S48T/Y140H/Y33H/Y91C); assay: HLA/peptide complex stability assay, RMA-S cells transfected with HLA-B*2709; conditions: for fluorescence index, B*2709: peptide 200 µM
T5 construct: expressed in transfected cells; host or cells: RMA-S (TAP-deficient murine cell line)

[1] = relative affinity (EC50 class), B*2702
[2] = relative affinity (EC50 class), B*2704
[3] = relative affinity (EC50 class), B*2705
[4] = relative affinity (EC50 class), B*2701
[5] = relative affinity (EC50 class), B*2703
[6] = relative affinity (EC50 class), B*2709
[7] = […], mean ± S.D. of three to five independent experiments, SD
[8] = Table 1, transfected RMA-S cells, 2 h 26°C then 2 h 37°C, ME1 mAb, flow cytometry, ratio to control without peptide, mean ± S.D. of three to five independent experiments, SD
[9] = Table 4, monosubstituted Ala analogs, transfected RMA-S cells, flow cytometry, mean ± S.D. of three to five independent experiments, SD

Sequence | EC50 (HLA-B*2706; EC50, B*2706, SD) | EC50 (HLA-B*2702; [1]) | EC50 (HLA-B*2704; EC50, B*2704, SD) | relative MHC class I affinity according to the EC50 value, in words (high, medium, low) (HLA-B*2705) | EC50 (HLA-B*2705; EC50, B*2705, SD) | EC50 (HLA-B*2703; EC50, B*2703, SD) | EC50 (HLA-B*2709; EC50, B*2709, SD) | EC50 (HLA-B*2704; [2]) | EC50 (HLA-B*2705; [3]) | EC50 (HLA-B*2701; [4]) | EC50 (HLA-B*2703; [5]) | EC50 (HLA-B*2702; EC50, B*2702, SD) | also measured
SRSALLAQM [M 76-84] | 1 ± 1 µM | > 200 µM | 15 ± 6 µM | high | 5 ± 5 µM | 6 ± 3 µM | 6 ± 2 µM |  |  |  |  |  | EC50 (HLA-B*2702; EC50, B*2702): > 200 µM; EC50 (HLA-B*2701; EC50, B*2701, SD): 15 ± 11 µM
GRNEVFSNK [L 2089-2097] |  | > 200 µM | 169 ± 57 µM | medium | 32 ± 6 µM | 71 ± 28 µM | 68 ± 24 µM | 61 to 200 µM | 20 to 60 µM | > 200 µM | 61 to 200 µM |  | EC50 (HLA-B*2706; EC50, B*2706): > 200 µM; EC50 (HLA-B*2706; relative affinity (EC50 class), B*2706): > 200 µM; EC50 (HLA-B*2702; EC50, B*2702): > 200 µM; EC50 (HLA-B*2701; read-out: EC50, B*2701): > 200 µM; EC50 (HLA-B*2709; [6]): 61 to 200 µM
ARANNVLKNEM [A1-NP 184-194, monosubstituted Ala analog of HRSV NP 184-194, […]] |  |  |  |  |  |  |  |  |  |  |  |  | fluorescence index, B*2706 (HLA-B*2706; [7]): 3.0±0.3; fluorescence index, B*2702 (HLA-B*2702; [7]): 2.0±0.3; fluorescence index, B*2704 (HLA-B*2704; [7]): 2.2±0.2; fluorescence index, B*2705 (HLA-B*2705; [7]): 2.4±0.3; fluorescence index, B*2701 (HLA-B*2701; [7]): 2.0±0.1; fluorescence index, B*2703 (HLA-B*2703; [7]): 1.4±0.1; fluorescence index, B*2709 (HLA-B*2709; [7]): 1.8±0.1
HRQDINGKEM [NP 100-109] | 3 ± 2 µM | 61 to 200 µM | 67 ± 27 µM | medium | 50 ± 15 µM | 96 ± 43 µM | 24 ± 7 µM | 61 to 200 µM | 20 to 60 µM | > 200 µM | 61 to 200 µM | 132 ± 53 µM | EC50 (HLA-B*2701; EC50, B*2701): > 200 µM; EC50 (HLA-B*2709; [6]): 20 to 60 µM
KRYKGLLPKDI [NP 195-205] | 1 ± 1 µM |  | 16 ± 3 µM | high | 7 ± 5 µM | 20 ± 11 µM | 7 ± 2 µM |  |  |  |  | 9 ± 1 µM | EC50 (HLA-B*2701; EC50, B*2701, SD): 8 ± 1 µM
KRAVGIGAL [HIV gp160 500-508, reference compound] |  |  |  |  |  |  |  |  |  |  |  |  | EC50 (HLA-B*2706; Table 2, peptide concentration at 50% of maximum fluorescence, range 0.01–200 µM, transfected RMA-S cells, flow cytometry, mean ± S.D. of three to five independent experiments, - = no statistical difference in fluorescence index to negative control, SD, read-out: EC50, B*2706): 1 ± 1 µM; EC50 (HLA-B*2702; Table 2, peptide concentration at 50% of maximum fluorescence, range 0.01–200 µM, transfected RMA-S cells, flow cytometry, mean ± S.D. of three to five independent experiments, - = no statistical difference in fluorescence index to negative control, SD, read-out: EC50, B*2702): 16 ± 6 µM; EC50 (HLA-B*2704; Table 2, peptide concentration at 50% of maximum fluorescence, range 0.01–200 µM, transfected RMA-S cells, flow cytometry, mean ± S.D. of three to five independent experiments, - = no statistical difference in fluorescence index to negative control, SD, read-out: EC50, B*2704): 24 ± 8 µM; EC50 (HLA-B*2704; Table 3, classes of EC50 from stabilization assay in transfected RMA-S cells, read-out: relative affinity (EC50 class), B*2704): 20 to 60 µM; EC50 (HLA-B*2705; Table 2, peptide concentration at 50% of maximum fluorescence, range 0.01–200 µM, transfected RMA-S cells, flow cytometry, mean ± S.D. of three to five independent experiments, - = no statistical difference in fluorescence index to negative control, SD, read-out: EC50, B*2705): 12 ± 3 µM; EC50 (HLA-B*2701; Table 2, peptide concentration at 50% of maximum fluorescence, range 0.01–200 µM, transfected RMA-S cells, flow cytometry, mean ± S.D. of three to five independent experiments, - = no statistical difference in fluorescence index to negative control, SD, read-out: EC50, B*2701): 17 ± 3 µM; EC50 (HLA-B*2703; Table 2, peptide concentration at 50% of maximum fluorescence, range 0.01–200 µM, transfected RMA-S cells, flow cytometry, mean ± S.D. of three to five independent experiments, - = no statistical difference in fluorescence index to negative control, SD, read-out: EC50, B*2703): 14 ± 7 µM; EC50 (HLA-B*2709; Table 2, peptide concentration at 50% of maximum fluorescence, range 0.01–200 µM, transfected RMA-S cells, flow cytometry, mean ± S.D. of three to five independent experiments, - = no statistical difference in fluorescence index to negative control, SD, read-out: EC50, B*2709): 8 ± 1 µM
VRNKDLNTL [M 169-177] | 3 ± 1 µM | 61 to 200 µM | 56 ± 16 µM | low affinity |  |  | 19 ± 7 µM | 20 to 60 µM | 61 to 200 µM | > 200 µM | > 200 µM | 94 ± 25 µM | EC50 (HLA-B*2705; read-out: EC50, B*2705, SD): 82 ± 20 µM; EC50 (HLA-B*2701; EC50, B*2701): > 200 µM; EC50 (HLA-B*2703; EC50, B*2703): > 200 µM
VAFTSHEHF [CMV pp65, reference compound] |  |  |  |  |  |  |  |  |  |  |  |  | fluorescence index, B*2706 (HLA-B*2706; [8]): 1.0±0.1; fluorescence index, B*2706 (HLA-B*2706; [9]): 1.0±0.1; fluorescence index, B*2702 (HLA-B*2702; [8]): 1.0±0.1; fluorescence index, B*2702 (HLA-B*2702; [9]): 1.0±0.1; fluorescence index, B*2704 (HLA-B*2704; [8]): 1.0±0.1; fluorescence index, B*2704 (HLA-B*2704; [9]): 1.0±0.1; fluorescence index, B*2705 (HLA-B*2705; [8]): 1.0±0.1; fluorescence index, B*2705 (HLA-B*2705; [9]): 1.0±0.1; fluorescence index, B*2701 (HLA-B*2701; [8]): 1.0±0.1; fluorescence index, B*2701 (HLA-B*2701; [9]): 1.0±0.1; fluorescence index, B*2703 (HLA-B*2703; [8]): 1.0±0.1; fluorescence index, B*2703 (HLA-B*2703; [9]): 1.0±0.1; fluorescence index, B*2709 (HLA-B*2709; [8]): 1.1±0.1; fluorescence index, B*2709 (HLA-B*2709; [9]): 1.1±0.1
